Test results taken from PMC2375353, “Effective treatment of experimental U-87MG human glioblastoma in nude mice with a targeted cytotoxic bombesin analogue, AN-215” (British Journal of Cancer, 2002).

Columns and labels:
[1] = molecular target: BN/GRP receptor on U-87MG tumour membranes; experiment: Displacement of 125I-[Tyr4]BN binding (radioreceptor assay) on U-87MG tumour membranes; design: species or system human
Procedure: Binding characteristics of BN receptors on membrane preparations from U-87MG tumours were determined by ligand competition assays using ^125I-labelled [Tyr^4]BN, as reported earlier ([Halmos and Schally, 1997]). […] IC50 value was calculated with a computerized curve fitting programme and is defined as the concentration of AN-215 causing a 50% inhibition of ^125I-[Tyr^4]BN binding.

[2] = tested on: H-69 human small-cell lung carcinoma; details: ref Kiaris et al, 1999a; cited from earlier work
Description: (§1) Current treatment options for malignant gliomas, including surgery, radiation, and chemotherapy, are of limited effectiveness, and novel therapeutic modalities must be explored. Targeting of antineoplastic agents to cancer cells by linking them to a ligand with high affinity for tumour cells should improve tumour growth inhibition and decrease peripheral toxicity ([Schally and Nagy, 1999]). The presence of high affinity receptors for bombesin (BN)-like peptides on a wide variety of tumours prompted us to employ some of our powerful BN/gastrin releasing peptide (GRP) antagonists as carrier mole ...

[3] = tested on: PC-3 human androgen-independent prostate cancer; details: ref Plonowski et al, 2000; cited from earlier work
Description: as §1

[4] = tested on: BN receptors on Swiss 3T3 fibroblasts; details: ref Nagy et al, 1997; cited from earlier work
Description: as §1

Substance: Gln-Trp-Ala-Val-Gly-His-Leu-ψ(CH2-NH)-Leu-NH2 [AN-215]
- IC50 ([1]; U-87MG tumour membranes, AN-215 10^-6–10^-12 M, mean±s.e., read-out: IC50, inhibition of specific 125I-[Tyr4]BN binding): 4 ± 0.1 nM
- Binding affinity to BN/GRP receptor protein ([1]; U-87MG tumours): high binding affinity
- Inhibition of H-69 human small-cell lung carcinoma [2]: effectively inhibit
- Inhibition of PC-3 human androgen-independent prostate cancer [3]: effectively inhibit
- Affinity to BN receptors [4]: high affinity
